Data on 52 compounds can be found in paper PMC6627609, “Targeting Quorum Sensing: High-Throughput Screening to Identify Novel LsrK Inhibitors” (International Journal of Molecular Sciences, 2019).

Where a name gives a salt, the structure may show the parent alone.

Chain of LsrK (Q8ZKQ6 whole entry): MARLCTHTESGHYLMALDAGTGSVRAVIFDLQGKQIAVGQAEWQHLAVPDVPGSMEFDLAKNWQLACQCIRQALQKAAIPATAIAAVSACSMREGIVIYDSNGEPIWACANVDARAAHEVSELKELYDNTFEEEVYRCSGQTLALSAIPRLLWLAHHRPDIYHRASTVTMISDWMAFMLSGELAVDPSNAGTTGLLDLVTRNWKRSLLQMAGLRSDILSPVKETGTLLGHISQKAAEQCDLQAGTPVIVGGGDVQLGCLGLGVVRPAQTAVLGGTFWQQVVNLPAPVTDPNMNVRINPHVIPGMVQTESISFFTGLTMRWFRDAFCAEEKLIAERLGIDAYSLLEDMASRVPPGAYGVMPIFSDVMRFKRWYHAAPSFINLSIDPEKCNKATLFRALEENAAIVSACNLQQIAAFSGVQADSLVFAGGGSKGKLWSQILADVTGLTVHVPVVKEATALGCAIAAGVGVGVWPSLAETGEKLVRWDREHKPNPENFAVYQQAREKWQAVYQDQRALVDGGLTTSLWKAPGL

One assay addresses LsrK (Salmonella typhimurium, UniProt Q8ZKQ6). The experiment in a line: biochemical. The format is biochemical, S. typhimurium.
Settings: not given
Take `O=C(O)CCC1NCC2CC1CN1CCCCC21` (stereo not shown) [LUPANYL ACID HYDROCHLORIDE]: the inhibition at 50 µM is 1%.

On to `NCc1ccc(S(N)(=O)=O)cc1` [MAFENIDE HYDROCHLORIDE], for which the inhibition at 50 µM was 1%.

With `O=c1c2cc(O)c(O)cc2oc2cc(O)c([C@@H]3O[C@H](CO)[C@@H](O)[C@H](O)[C@H]3O)c(O)c12` [MANGIFERIN], the inhibition at 50 µM is 14%.

As to `COC(=O)Nc1nc2ccc(C(=O)c3ccccc3)cc2[nH]1` [MEBENDAZOLE], the inhibition at 50 µM was determined as 1%.

Take `CCN(CCCCOC(=O)c1ccc(OC)c(OC)c1)C(C)Cc1ccc(OC)cc1` (stereo not shown) [MEBEVERINE HYDROCHLORIDE]: the inhibition at 50 µM was 1%.

`Cc1ccc(Cl)c(Nc2ccccc2C(=O)O)c1Cl` [MECLOFENAMATE SODIUM]: the inhibition at 50 µM stood at 6%.

On to `COC(=O)C(N)CS` (stereo not shown) [MECYSTEINE HYDROCHLORIDE], for which the inhibition at 50 µM was determined as 112%.

Consider `CC(=O)O[C@]1(C(C)=O)CC[C@H]2[C@@H]3C[C@H](C)C4=CC(=O)CC[C@]4(C)[C@H]3CC[C@@]21C` [MEDROXYPROGESTERONE ACETATE], for which the inhibition at 50 µM was 1%.

For the compound `Cc1cccc(Nc2ccccc2C(=O)O)c1C` [MEFENAMIC ACID], the inhibition at 50 µM was 1%.

On to `OC(c1cc(C(F)(F)F)nc2c(C(F)(F)F)cccc12)C1CCCCN1` (stereo not shown) [MEFLOQUINE], for which the inhibition at 50 µM came to 32%.

Consider `CNC[C@H](O)[C@@H](O)[C@H](O)[C@H](O)CO` [MEGLUMINE], for which the inhibition at 50 µM amounted to 1%.

With `COc1ccc2[nH]cc(CCNC(C)=O)c2c1` [MELATONIN], the inhibition at 50 µM amounted to 1%.

Regarding `C=C1C[C@H]2[C@@H]3C=C(C)C4=CC(=O)CC[C@]4(C)[C@H]3CC[C@]2(C)[C@@]1(OC(C)=O)C(C)=O` [MELENGESTROL ACETATE], the inhibition at 50 µM is 1%.

Consider `OC[C@H]1O[C@@](CO)(O[C@H]2O[C@H](CO)[C@@H](O)[C@H](O)[C@H]2O)[C@@H](O[C@H]2O[C@H](CO)[C@@H](O)[C@H](O)[C@H]2O)[C@@H]1O` [MELEZITOSE], for which the inhibition at 50 µM came to 2%.

`Cc1cnc(NC(=O)C2=C(O)c3ccccc3S(=O)(=O)N2C)s1` [MELOXICAM SODIUM]: the inhibition at 50 µM came to 0%.

Consider `C[N+]1(C)CCCC(OC(=O)C(O)(c2ccccc2)c2ccccc2)C1` (stereo not shown) [MEPENZOLATE BROMIDE], for which the inhibition at 50 µM amounted to 3%.

Take `Cc1ccccc1OCC(O)CO` (stereo not shown) [MEPHENESIN]: the inhibition at 50 µM was found to be 1%.

In the case of `Cc1cccc(C)c1NC(=O)C1CCCCN1C` (stereo not shown) [MEPIVACAINE HYDROCHLORIDE], the inhibition at 50 µM is 15%.

For `S=c1[nH]cnc2nc[nH]c12` [MERCAPTOPURINE], the inhibition at 50 µM turned out to be 1%.

Turning to `Nc1ccc(O)c(C(=O)O)c1` [MESALAMINE], the inhibition at 50 µM was 105%.

On to `CC(=O)Nc1cccc(O)c1` [METACETAMOL], for which the inhibition at 50 µM was 1%.

For `CC(C)NCC(O)c1cc(O)cc(O)c1` (stereo not shown) [METAPROTERENOL], the inhibition at 50 µM amounted to 3%.

Regarding `C[C@H](N)[C@H](O)c1cccc(O)c1` [METARAMINOL BITARTRATE], the inhibition at 50 µM was 9%.

As to `Cc1cc(C)cc(OCC2CNC(=O)O2)c1` (stereo not shown) [METAXALONE], the inhibition at 50 µM amounted to 0%.

For `CN1C[C@H](CNC(=O)OCc2ccccc2)C[C@@H]2c3cccc4c3c(cn4C)C[C@H]21` [METERGOLINE], the inhibition at 50 µM came to 3%.

For `C=C1c2cccc(O)c2C(=O)C2=C(O)[C@]3(O)C(=O)C(C(N)=O)=C(O)[C@@H](N(C)C)[C@@H]3[C@@H](O)[C@H]12` [METHACYCLINE HYDROCHLORIDE], the inhibition at 50 µM is 97%.

On to `C1N2CN3CN1CN(C2)C3` [METHENAMINE], for which the inhibition at 50 µM was 2%.

With `COc1cccc(OC)c1C(=O)N[C@@H]1C(=O)N2[C@@H]1SC(C)(C)[C@@H]2C(=O)O` [METHICILLIN SODIUM], the inhibition at 50 µM was 1%.

Consider `COC(=O)c1cc(O)c(=O)c2c(O)c(O)ccc2c1` [METHYL 7-DESHYDROXYPYROGALLIN-4-CARBOXYLATE], for which the inhibition at 50 µM stood at 112%.

On to `COC(=O)c1c(C)cc(O)cc1O` [METHYL ORSELLINATE], for which the inhibition at 50 µM was 0%.

Turning to `COc1c2c(cc3occ(-c4ccc5c(c4)OCO5)c(=O)c13)OC(C)(C)C=C2` [METHYL ROBUSTONE], the inhibition at 50 µM was determined as 1%.

In the case of `CN(C)c1ccc2nc3ccc(=[N+](C)C)cc-3sc2c1` [METHYLENE BLUE], the inhibition at 50 µM was 3%.

As to `CC[C@@H](CO)NC(=O)[C@@H]1C=C2c3cccc4[nH]cc(c34)C[C@H]2N(C)C1` [METHYLERGONOVINE MALEATE], the inhibition at 50 µM turned out to be 1%.

Consider `Cc1cc(=O)[nH]c(=S)[nH]1` [METHYLTHIOURACIL], for which the inhibition at 50 µM was found to be 4%.

For `Cc1ccccc1N1C(=O)c2cc(S(N)(=O)=O)c(Cl)cc2NC1C` (stereo not shown) [METOLAZONE], the inhibition at 50 µM turned out to be 1%.

For the compound `Cc1ncc([N+](=O)[O-])n1CCO` [METRONIDAZOLE], the inhibition at 50 µM worked out at 0%.

Take `CN(C)c1ccc(O)c2c1C[C@H]1C[C@H]3[C@H](N(C)C)C(O)=C(C(N)=O)C(=O)[C@@]3(O)C(O)=C1C2=O` [MINOCYCLINE HYDROCHLORIDE]: the inhibition at 50 µM worked out at 71%.

For the compound `CO[C@@]12[C@H](COC(N)=O)C3=C(C(=O)C(C)=C(N)C3=O)N1C[C@@H]1N[C@@H]12` [MITOMYCIN C], the inhibition at 50 µM amounted to 0%.

Consider `NC(=O)C[S+]([O-])C(c1ccccc1)c1ccccc1` (stereo not shown) [MODAFINIL], for which the inhibition at 50 µM turned out to be 1%.

As for `CCOC(=O)[N-]c1cn(N2CCOCC2)n[o+]1` [MOLSIDOMINE], the inhibition at 50 µM was 0%.

For `C[C@H]1C(=O)O[C@@H]2CCN3CC=C(COC(=O)[C@](C)(O)[C@]1(C)O)[C@H]23` [MONOCROTALINE], the inhibition at 50 µM was 111%.

Regarding `Cc1ccsc1/C=C/C1=NCCCN1C` [MORANTEL CITRATE], the inhibition at 50 µM is 0%.

Consider `O=c1c(O)c(-c2ccc(O)cc2O)oc2cc(O)cc(O)c12` [MORIN], for which the inhibition at 50 µM was 154%.

Regarding `CO[C@@]1(NC(=O)C(C(=O)O)c2ccc(O)cc2)C(=O)N2C(C(=O)O)=C(CSc3nnnn3C)CO[C@@H]21` (stereo partly shown) [MOXALACTAM DISODIUM], the inhibition at 50 µM is 1%.

In the case of `COc1c(-c2coc3cc4c(cc3c2=O)CC(O)C(C)(C)O4)ccc2c1C=CC(C)(C)O2` (stereo not shown) [MUNDULONE], the inhibition at 50 µM was found to be 0%.

Still in this assay, the particulars now being: 50 µM.
`OC[C@H]1O[C@H](OCC2O[C@@H](O)[C@H](O)[C@@H](O)[C@@H]2O)[C@H](O)[C@@H](O)[C@H]1O` (stereo partly shown) [MELIBIOSE]: the “Inhibition (%)” value worked out at 3.

Regarding `O=C([O-])c1ccccc1-c1c2cc(Br)c(=O)cc-2oc2[c]([Hg+])c([O-])c(Br)cc12.[Na+].[Na+].[OH-]` [MERBROMIN], the “Inhibition (%)” value turned out to be 119.

Consider `C=N[C@@H](C(=O)N[C@@H]1C(=O)N2[C@@H]1SC(C)(C)[C@@H]2C(=O)[O-])c1ccccc1.[Na+]` [METAMPICILLIN SODIUM], for which the “Inhibition (%)” value was determined as 2.

With `Cc1cc(C(C)(C)CC(C)(C)C)ccc1OCCOCC[N+](C)(C)Cc1ccccc1.[Cl-]` [METHYLBENZETHONIUM CHLORIDE], the “Inhibition (%)” value is 89.

With `COc1cc(OC)c(C(C)=O)c(OC)c1` [METHYLXANTHOXYLIN], the “Inhibition (%)” value stood at 4.

For the compound `Cl.Cl.O=C1c2c(O)ccc(O)c2C(=O)c2c(NCCNCCO)ccc(NCCNCCO)c21` [MITOXANTHRONE HYDROCHLORIDE], the “Inhibition (%)” value was determined as 2.

On to `CC(=O)Oc1cc(C(C)C)c(OCCN(C)C)cc1C.Cl` [MOXISYLYTE HYDROCHORIDE], for which the “Inhibition (%)” value is listed as 2.

By inhibition is commonly meant the drop in the measured response relative to a control, in per cent.
